Test results: patent US4296112A, “Cephalosporins” (Mitsui Toatsu Chemicals, Inc., priority 1979, dated 1981)
Converted amounts (≈) assume the structure as drawn. Like-named read-outs stand apart in the source and are kept apart here.

What was measured:
[1] = tested on: Pseudomonas aeruginosa (718); assay: MIC, agar plate dilution (Referential Example 1, Table 1); type: cell-based; settings: HIA medium plate, 37° C., 18 hours, read-out: Minimum growth inhibitory concentration (MIC)
Protocol: (§1) The antibacterial activities of the cephalosporins of this invention were measured using the sodium salts of the compounds obtained in Synthesis Examples 1 and 2. The procedure and the results are shown in Referential Example 1.
(§2) Carbenicillin sodium salt (CB-PC) and cephazoline sodum salt (CEZ) were used as controls.
(§3) The antibacterial activities of the test compounds against various Gram-positive and Gram-negative bacteria were determined in a customary manner by the minimum growth inhibitory concentration method (MIC method).
(§4) The experimental procedure was as follows:
(§5) A commercially available heart infusion agar medium (to be abbreviated HIA medium) was used as an assay medium, and a commercially available trypto-soy bouillon medium (to be abbreviated TSB) was used as a medium for the growth of test bacterial strains.
(§6) The test compound was diluted with the melted HIA medium to 100 μg/ml as a maximum concentration, and then serially diluted double. The dilutions were poured into sterilized Petri dishes respectively and allowed to cool and solidify to prepare plates containing the test compound.
(§7) The test bacterial strain was cultivated at 37° C. for 18 to 24 hours in the TSB medium. The culture broth was diluted to 50 to 500 times with a freshly prepared TSB culture medium, and one platinum loopful of the dilution was inoculated in each of the plates containing the test compound.

Escherichia coli (NIHJ) = assay: as above; type: cell-based; settings: 18 h, read-out: Minimum growth inhibitory concentration (MIC)
Protocol: as §1, §2, §3, §4, §5, §6, §7

[2] = tested on: Streptococcus faecalis (Hoshi); assay: as above; type: cell-based; settings: Enterococcus faecalis; HIA medium plate, 37° C., 18 hours; read-out: Minimum growth inhibitory concentration (MIC)
Protocol: as §1, §2, §3, §4, §5, §6, §7

Escherichia coli (K-12) = assay: as above; type: cell-based; settings: 18 h, read-out: Minimum growth inhibitory concentration (MIC)
Protocol: as §1, §2, §3, §4, §5, §6, §7

[3] = tested on: Staphylococcus aureus (FDA 209P); assay: as above; type: cell-based; settings: FDA209P, 18 h, read-out: Minimum growth inhibitory concentration (MIC)
Protocol: as §1, §2, §3, §4, §5, §6, §7

[4] = tested on: Pseudomonas aeruginosa (F1629); assay: as above; type: cell-based; settings: HIA medium plate, 37° C., 18 hours, read-out: Minimum growth inhibitory concentration (MIC)
Protocol: as §1, §2, §3, §4, §5, §6, §7

Escherichia coli (26RO3) = assay: as above; type: cell-based; settings: HIA medium plate, 37° C., 18 hours, read-out: Minimum growth inhibitory concentration (MIC)
Protocol: as §1, §2, §3, §4, §5, §6, §7

[5] = tested on: Salmonella enteritidis (KB-21); assay: as above; type: cell-based; settings: Salmonella enterica, HIA medium plate, 37° C., 18 hours, read-out: Minimum growth inhibitory concentration (MIC)
Protocol: as §1, §2, §3, §4, §5, §6, §7

[6] = tested on: Pseudomonas aeruginosa (NCTC 7244); assay: as above; type: cell-based; settings: NCTC7244, HIA medium plate, 37° C., 18 hours, read-out: Minimum growth inhibitory concentration (MIC)
Protocol: as §1, §2, §3, §4, §5, §6, §7

[7] = tested on: Pseudomonas maltophilia (F-6257); assay: as above; type: cell-based; settings: Stenotrophomonas maltophilia; HIA medium plate, 37° C., 18 hours; read-out: Minimum growth inhibitory concentration (MIC)
Protocol: as §1, §2, §3, §4, §5, §6, §7

[8] = tested on: Pseudomonas aeruginosa (395); assay: as above; type: cell-based; settings: read-out: Minimum growth inhibitory concentration (MIC)
Protocol: as §1, §2, §3, §4, §5, §6, §7

[9] = tested on: Pseudomonas aeruginosa (IFO-3901); assay: as above; type: cell-based; settings: IFO3901, HIA medium plate, 37° C., 18 hours, read-out: Minimum growth inhibitory concentration (MIC)
Protocol: as §1, §2, §3, §4, §5, §6, §7

[10] = tested on: Pseudomonas aeruginosa (ATCC 10145); assay: as above; type: cell-based; settings: ATCC10145, HIA medium plate, 37° C., 18 hours, read-out: Minimum growth inhibitory concentration (MIC)
Protocol: as §1, §2, §3, §4, §5, §6, §7

[11] = tested on: Klebsiella pneumoniae (Horino); assay: as above; type: cell-based; settings: HIA medium plate, 37° C., 18 hours, read-out: Minimum growth inhibitory concentration (MIC)
Protocol: as §1, §2, §3, §4, §5, §6, §7

[12] = tested on: Serratia marcescens (S-33); assay: as above; type: cell-based; settings: HIA medium plate, 37° C., 18 hours, read-out: Minimum growth inhibitory concentration (MIC)
Protocol: as §1, §2, §3, §4, §5, §6, §7

[13] = tested on: Enterobacter aerogenes (IFO 3320); assay: as above; type: cell-based; settings: Klebsiella aerogenes, IFO3320, 18 h, read-out: Minimum growth inhibitory concentration (MIC)
Protocol: as §1, §2, §3, §4, §5, §6, §7

[14] = tested on: Klebsiella pneumoniae (ATCC 10031); assay: as above; type: cell-based; settings: ATCC10031, 18 h, read-out: Minimum growth inhibitory concentration (MIC)
Protocol: as §1, §2, §3, §4, §5, §6, §7

Proteus morganii (C-39) = assay: as above; type: cell-based; settings: Morganella morganii; HIA medium plate, 37° C., 18 hours; read-out: Minimum growth inhibitory concentration (MIC)
Protocol: as §1, §2, §3, §4, §5, §6, §7

Proteus vulgaris (OX-19) = assay: as above; type: cell-based; settings: 18 h, read-out: Minimum growth inhibitory concentration (MIC)
Protocol: as §1, §2, §3, §4, §5, §6, §7

[15] = tested on: Pseudomonas aeruginosa (S-1); assay: as above; type: cell-based; settings: HIA medium plate, 37° C., 18 hours, read-out: Minimum growth inhibitory concentration (MIC)
Protocol: as §1, §2, §3, §4, §5, §6, §7

[16] = tested on: Klebsiella pneumonia (F-5089); assay: as above; type: cell-based; settings: Klebsiella pneumoniae; HIA medium plate, 37° C., 18 hours; read-out: Minimum growth inhibitory concentration (MIC)
Protocol: as §1, §2, §3, §4, §5, §6, §7

Proteus rettgeri (T-2) = assay: as above; type: cell-based; settings: Providencia rettgeri; HIA medium plate, 37° C., 18 hours; read-out: Minimum growth inhibitory concentration (MIC)
Protocol: as §1, §2, §3, §4, §5, §6, §7

[17] = tested on: Staphylococcus aureus (Y-8); assay: as above; type: cell-based; settings: HIA medium plate, 37° C., 18 hours, read-out: Minimum growth inhibitory concentration (MIC)
Protocol: as §1, §2, §3, §4, §5, §6, §7

Shigella flexneri (K-A) = assay: as above; type: cell-based; settings: HIA medium plate, 37° C., 18 hours, read-out: Minimum growth inhibitory concentration (MIC)
Protocol: as §1, §2, §3, §4, §5, §6, §7

[18] = tested on: Bacillus cereus (IAM 1792); assay: as above; type: cell-based; settings: IAM1792, HIA medium plate, 37° C., 18 hours, read-out: Minimum growth inhibitory concentration (MIC)
Protocol: as §1, §2, §3, §4, §5, §6, §7

[19] = Acute toxicity (LD50) in mice, intravenous (Experimental Example 2); settings: mouse, in vivo; ICR male mice, intravenous (tail), two weeks observation; estimated; read-out: 50% lethal dose (LD50)
Protocol: Each of the compounds was administered intravenously to the tail of each mouse in a customary manner in a dose of 500 mg/kg and 1000 mg/kg, and over two weeks from then, the states of the mice were observed. It was consequently estimated that the LD50 values of each of these compounds was at least 1000 mg/kg.

Row | Structure (SMILES) | MIC [1] [µg/mL] | MIC (Escherichia coli (NIHJ)) [µg/mL] | MIC [2] [µg/mL] | MIC (Escherichia coli (K-12)) [µg/mL] | MIC [3] [µg/mL] | MIC [4] [µg/mL] | MIC (Escherichia coli (26RO3)) [µg/mL] | MIC [5] [µg/mL] | MIC [6] [µg/mL] | MIC [7] [µg/mL] | MIC [9] [µg/mL] | MIC [10] [µg/mL] | MIC [11] [µg/mL] | MIC [12] [µg/mL] | MIC [13] [µg/mL] | MIC [14] [µg/mL] | MIC (Proteus morganii (C-39)) [µg/mL] | MIC (Proteus vulgaris (OX-19)) [µg/mL] | MIC [15] [µg/mL] | MIC [16] [µg/mL] | other results
1 | Cc1nnc(SCC2=C(C(=O)O)N3C(=O)C(NC(=O)[C@H](NC(=O)c4cnc5c(c4O)C(=O)CCC5)c4ccc(O)cc4)C3SC2)s1 (single isomer, unassigned) [Synthesis Example 2] | 12.5 (≈ 18.3 µM) | 0.78 (≈ 1.14 µM) | 12.5 (≈ 18.3 µM) | 0.39 (≈ 0.571 µM) | 0.78 (≈ 1.14 µM) | 6.25 (≈ 9.15 µM) | 1.56 (≈ 2.28 µM) | 0.2 (≈ 0.293 µM) | 12.5 (≈ 18.3 µM) | 3.13 (≈ 4.58 µM) | 6.25 (≈ 9.15 µM) | 12.5 (≈ 18.3 µM) | 1.56 (≈ 2.28 µM) | 12.5 (≈ 18.3 µM) | 0.39 (≈ 0.571 µM) | 0.78 (≈ 1.14 µM) | 6.25 (≈ 9.15 µM) | 0.78 (≈ 1.14 µM) | 1.56 (≈ 2.28 µM) | 1.56 (≈ 2.28 µM) | MIC ([8]; HIA medium plate, 37° C., 18 hours): 3.13 µg/mL (≈ 4.58 µM); MIC (Proteus rettgeri (T-2)): 1.56 µg/mL (≈ 2.28 µM); MIC [17]: 3.13 µg/mL (≈ 4.58 µM); MIC (Shigella flexneri (K-A)): 0.2 µg/mL (≈ 0.293 µM); MIC [18]: 12.5 µg/mL (≈ 18.3 µM); LD50 at 336 h [19]: ≥ 1000 mg/kg
2 | CC(=O)OCC1=C(C(=O)O)N2C(=O)C(NC(=O)[C@H](NC(=O)c3cnc4c(c3O)C(=O)CCC4)c3ccc(O)cc3)C2SC1 (single isomer, unassigned) [Synthesis Example 1, 7-[D-(-)-α-(4-hydroxy-5-oxo-5,6,7,8-tetrahydroquinoline-3-carboxamide)-α-(4-hydroxyphenyl)acetamido]-3-acetoxymethyl-Δ^3-cephem-4-carboxylic acid] | 12.5 (≈ 20.5 µM) | 1.56 (≈ 2.55 µM) | 25 (≈ 40.9 µM) | 1.56 (≈ 2.55 µM) | 1.56 (≈ 2.55 µM) | 12.5 (≈ 20.5 µM) | 3.13 (≈ 5.13 µM) | 0.78 (≈ 1.28 µM) | 12.5 (≈ 20.5 µM) | 0.25 (≈ 0.409 µM) | 12.5 (≈ 20.5 µM) | 12.5 (≈ 20.5 µM) | 3.13 (≈ 5.13 µM) | 25 (≈ 40.9 µM) | 0.39 (≈ 0.639 µM) | 1.56 (≈ 2.55 µM) | 12.5 (≈ 20.5 µM) | 1.56 (≈ 2.55 µM) | 3.13 (≈ 5.13 µM) | 3.13 (≈ 5.13 µM) | MIC ([8]; 18 h): 1.56 µg/mL (≈ 2.55 µM); MIC (Proteus rettgeri (T-2)): 3.13 µg/mL (≈ 5.13 µM); MIC [17]: 3.13 µg/mL (≈ 5.13 µM); MIC (Shigella flexneri (K-A)): 0.39 µg/mL (≈ 0.639 µM); MIC [18]: 25 µg/mL (≈ 40.9 µM); LD50 at 336 h [19]: ≥ 1000 mg/kg
